Converted amounts (≈) assume the structure as drawn. Where two headings read alike, the source gives them in different places.
Key:
[1] = system: murine P388 lymphocytic leukemia cells; experiment: In vitro anti-tumor activity against murine P388 lymphocytic leukemia cells (MTT, 72 h); format: cell-based; details: Mus musculus, read-out: IC50 (50% proliferation inhibitory concentration)
Method: Test compounds were tested for anti-tumor activity according to MTT [3-(4,5-dimethylthiazol-2-yl)-2,5-diphenyltetrazolium bromide] method, using murine P388 lymphocytic leukemia cells. […] The culture medium was centrifuged (4° C., 2,000 rpm for 20 minutes), and thus, the supernatants were removed by suction. Then, 0.1 ml of dimethyl sulfoxide was put in each well to dissolve the formed formazan, and, subsequently, another 0.1 ml of dimethyl sulfoxide was added. The absorbance (OD) of each of the obtained solutions was measured by use of Multiskan Bichromatic (main wavelength 570 nm, sub-wavelength 690 nm). […] IC50 :μg/ml) were calculated by the least squares method.

[2] = system: KB human nasopharynx cancer; experiment: In vitro anti-tumor activity against KB human nasopharynx cancer (MTT); format: cell-based; details: 72 h
Method: (§1) A culture medium containing 500 to 2,000 human cancer cells was put in an amount of 0.1 ml in each well of 96-well plate, and the cells were cultured for 20 hours under a condition of 37° C. and 5% carbon dioxide gas in air. After the culturing, a solution of test compounds of predetermined concentration was added, and then, the cells were cultured for further 72 hours. After the culturing, an MTT (5 mg/ml) solution was added in an amount of 0.01 ml in the respective wells, and the cells were cultured for further 4 hours. The supernatants of the culture medium were removed by suction, and then, 0.1 ml of dimethyl sulfoxide was put in respective well to dissolve the formed formazan, and, moreover, 0.1 ml of dimethyl sulfoxide was added.

HMV2 human melanoma = experiment: In vitro anti-tumor activity against HMV-2 human melanoma (MTT); format: cell-based; details: HMV-2, 72 h
Method: as §1

[3] = system: AZ521 human stomach cancer; experiment: In vitro anti-tumor activity against AZ-521 human stomach cancer (MTT); format: cell-based; details: AZ-521, 72 h
Method: as §1

[4] = system: MKN45 human stomach cancer; experiment: In vitro anti-tumor activity against MKN45 human stomach cancer (MTT); format: cell-based
Method: as §1

[5] = system: WiDr human colorectal cancer; experiment: In vitro anti-tumor activity against WiDr human colorectal cancer (MTT); format: cell-based; details: 72 h
Method: as §1

C33A human cervix cancer = experiment: In vitro anti-tumor activity against C-33A human cervix cancer (MTT); format: cell-based; details: 72 h
Method: as §1

A427 human lung cancer = experiment: In vitro anti-tumor activity against A-427 human lung cancer (MTT); format: cell-based; details: A-427, 72 h
Method: as §1

[6] = system: murine P388 lymphocytic leukemia cells; experiment: Increases in life span of mice implanted with murine P388 lymphocytic leukemia cells; format: in vivo, SLC: BDF1 mice; details: Mus musculus, P388, ip, 720 h
Method: 1×10^6 murine P388 lymphocytic leukemia cells were intraperitoneally implanted in each of SLC: BDF1 mice (8 to 10 weeks old, female, 7 animals per one group). A test compound (drug) was either dissolved in 0.1 N--NaOH or suspended in 0.4% carboxymethylcellulose solution, and the resultant solution or suspension was diluted with distilled water or 0.4% carboxymethylcellulose solution so as to give predetermined concentrations for administration. The obtained solution was intraperitoneally (ip) administered twice, namely on the day following the implantation (1st day) and the 5th day, each 0.2 ml. The life and death of the mice were observed over a period of 30 days, and the median survival time (hereinafter referred to as MST) was determined for each group, and, thus, the increase in life span (ILS; %) was calculated according to the following equation:
ILS (%)=[{(MST of the test group)/(MST of the control group)}-1]×100
Drug effect was judged in the following manner, according to the criterion of U.S. National Cancer Institute (NCI):
ILS=75% or higher: ++ (remarkably effective);
20 to 74%: + (effective);
19% or lower: - (ineffective)

[7] = system: colon 26 murine tumor cells; experiment: Tumor growth inhibition effect on colon 26 murine tumor cells implanted mice; format: in vivo, SLC: CDF1 mice; details: Mus musculus, read-out: Tumor growth inhibition rate IR (%); for inhibition in vivo at 1.56 mg/kg: 1.56 mg/kg once a day
Method: A 2% brei of colon 26 murine tumor cells was intracutaneously implanted each 0.1 ml in the abdominal part of SLC: CDF1 female mice (7 to 9 weeks old, 7 animals per one group). […] The obtained solutions were intraperitoneally (ip) administered each 0.2 ml once a day, from the day (1st day) following the implantation to the 9th day. On the 21st or 22nd day after the implantation, tumor weight was estimated from tumor diameters, and thus, the tumor growth inhibition rate (IR %) of the drug administered group in comparison with the control group was calculated according to the following equation. IR (%)=[1-{(MTW in the treated group)/(MTW in the control group)}]×10 0 MTW: mean tumor weight

Acute toxicity = details: mouse, in vivo, mice, 14th day
Method: Solutions of test compounds in predetermined concentrations were administered (0.1 ml/10 g body weight) to female BALB/c CrSlc mice (5 to 10 animals per one group, 10 weeks old) respectively, and, thus, LD50 values were calculated from the mortalities of the mice on the 14th day after the administration.

[8] = MKN-45, MKN45, 72 h, MTT, read-out: IC50
[9] = NCI criterion, ip, 3.13 mg/kg, read-out: Evaluation
[10] = NCI criterion, ip, 12.5 mg/kg, read-out: Evaluation
[11] = ip, 3.13 mg/kg, days 1 and 5, in suspension, read-out: ILS (%) (in suspension)
[12] = ip, 12.5 mg/kg, days 1 and 5, in suspension, read-out: ILS (%) (in suspension)
[13] = Colon 26, 504 h, ip, days 1-9, day 21 or 22
[14] = Intravenous administration (iv)
[15] = read-out: ILS (%) (in solution)

Work on `CN[C@@H]1CN(c2ccc3c(=O)c(C(=O)O)cn(-c4nccs4)c3n2)C[C@H]1C` (relative stereo) [Compound 5] yielded an IC50 ([1]; murine P388 cells, 72 h, MTT) of 0.0117 µg/mL (≈ 0.0304 µM), an IC50 ([2]; KB, MTT, read-out: IC50) of 0.0805 µg/mL (≈ 0.209 µM) and an IC50 (HMV2 human melanoma; MTT, read-out: IC50) of 0.0944 µg/mL (≈ 0.245 µM). It also gave an IC50 ([3]; MTT, read-out: IC50) of 0.0433 µg/mL (≈ 0.112 µM), an IC50 [4, 8] of 0.0978 µg/mL (≈ 0.254 µM) and an IC50 ([5]; MTT, read-out: IC50) of 0.218 µg/mL (≈ 0.566 µM). The IC50 (C33A human cervix cancer; C-33A, MTT, read-out: IC50) was 0.106 µg/mL (≈ 0.275 µM), the IC50 (A427 human lung cancer; MTT, read-out: IC50) was 0.0927 µg/mL (≈ 0.24 µM) and the ILS at 1.56 mg/kg ([6]; NCI criterion, ip, 1.56 mg/kg, read-out: Evaluation) was 20 to 74%. For the same compound, the ILS at 3.13 mg/kg [6, 9] was > 75%, the ILS at 6.25 mg/kg ([6]; NCI criterion, ip, 6.25 mg/kg, read-out: Evaluation) was > 75% and the ILS at 12.5 mg/kg [6, 10] was > 75%. It also gave an ILS at 1.56 mg/kg ([6]; ip, 1.56 mg/kg, days 1 and 5, in solution, read-out: ILS (%) (in solution)) of 50%, an ILS at 3.13 mg/kg ([6]; ip, 3.13 mg/kg, days 1 and 5, in solution, read-out: ILS (%) (in solution)) of 113% and an ILS at 3.13 mg/kg [6, 11] of 88%. For the same compound, the ILS at 6.25 mg/kg ([6]; ip, 6.25 mg/kg, days 1 and 5, in solution, read-out: ILS (%) (in solution)) was 150%, the ILS at 12.5 mg/kg ([6]; ip, 12.5 mg/kg, days 1 and 5, in solution, read-out: ILS (%) (in solution)) was 188% and the ILS at 12.5 mg/kg [6, 12] was 188%. It also gave an inhibition in vivo at 1.56 mg/kg [7, 13] of 78% and an LD50 at 336 h (Acute toxicity; [14]) of 66.7 mg/kg.

Compound `Cl.NC1CCN(c2ccc3c(=O)c(C(=O)O)cn(-c4nc(F)cs4)c3n2)C1` (stereo not drawn) [Compound 8, 7-(3-Amino-1-pyrrolidinyl)-1-(4-fluoro-2-thiazolyl)-1,4-dihydro-4-oxo-1,8-naphthyridine-3-carboxylic acid hydrochloride] has an IC50 ([1]; murine P388 cells, 72 h, MTT) of 0.00413 µg/mL, an IC50 ([2]; KB, MTT, read-out: IC50) of 0.0494 µg/mL and an IC50 (HMV2 human melanoma; MTT, read-out: IC50) of 0.0578 µg/mL. For the same compound, the IC50 ([3]; MTT, read-out: IC50) was 0.0285 µg/mL, the IC50 [4, 8] was 0.143 µg/mL and the IC50 ([5]; MTT, read-out: IC50) was 0.323 µg/mL. For the same compound, the IC50 (C33A human cervix cancer; C-33A, MTT, read-out: IC50) was 0.0712 µg/mL, the IC50 (A427 human lung cancer; MTT, read-out: IC50) was 0.0625 µg/mL and the ILS at 0.78 mg/kg ([6]; NCI criterion, ip, read-out: Evaluation) was > 75%. The ILS at 3.13 mg/kg [6, 9] was > 75%, the ILS at 12.5 mg/kg [6, 10] was > 75% and the ILS at 0.78 mg/kg ([6]; ip, days 1 and 5, in suspension, read-out: ILS (%) (in suspension)) was 75%. For the same compound, the ILS at 3.13 mg/kg [6, 11] was 175%, the ILS at 12.5 mg/kg [6, 12] was > 275% and the inhibition in vivo at 0.39 mg/kg ([7]; Colon 26, 504 h, ip, 0.39 mg/kg once a day, days 1-9, day 21 or 22) was 57%. It also gave an inhibition in vivo at 1.56 mg/kg [7, 13] of 91%.

In the case of `COc1cc([C@@H]2c3cc4c(cc3[C@@H](O[C@@H]3O[C@@H]5CO[C@@H](C)O[C@H]5[C@H](O)[C@H]3O)[C@H]3COC(=O)[C@H]23)OCO4)cc(OC)c1O` [Compound H, Etoposide, reference compound], the IC50 ([1]; P388, 72 h) is reported as 0.00849 µg/mL (≈ 0.0144 µM), the IC50 [2] is reported as 0.201 µg/mL (≈ 0.342 µM) and the IC50 (HMV2 human melanoma) is reported as 0.298 µg/mL (≈ 0.506 µM). The IC50 [3] was 0.08 µg/mL (≈ 0.136 µM), the IC50 ([4]; MKN-45, 72 h) was 0.49 µg/mL (≈ 0.833 µM) and the IC50 [5] was 1.63 µg/mL (≈ 2.77 µM). It also gave an IC50 (C33A human cervix cancer; C-33-A) of 0.084 µg/mL (≈ 0.143 µM), an IC50 (A427 human lung cancer) of 0.095 µg/mL (≈ 0.161 µM) and an ILS at 1.56 mg/kg ([6]; read-out: Evaluation) of 20 to 74%. The ILS at 3.13 mg/kg ([6]; read-out: Evaluation) was > 75%, the ILS at 6.25 mg/kg ([6]; read-out: Evaluation) was > 75% and the ILS at 12.5 mg/kg ([6]; read-out: Evaluation) was > 75%. For the same compound, the ILS at 25 mg/kg ([6]; read-out: Evaluation) was > 75%, the ILS at 1.56 mg/kg [6, 15] was 50% and the ILS at 3.13 mg/kg [6, 15] was 75%. For the same compound, the ILS at 6.25 mg/kg [6, 15] was 100%, the ILS at 12.5 mg/kg [6, 15] was 150% and the ILS at 25 mg/kg [6, 15] was > 275%. It also gave an inhibition in vivo at 12.5 mg/kg ([7]; Colon 26, ip, 504 h) of 57%, an LD50 at 336 h (Acute toxicity; Intraperitoneal administration (ip)) of 71 mg/kg and an LD50 at 336 h (Acute toxicity; [14]) of 123 mg/kg.
